In PubChem BioAssay (NCI):
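Briefly, cells in 96-well plates were exposed to five compound concentrations for 48 h, and endpoints were estimated by linear interpolation. GI50 is the concentration that inhibits growth by half. The concentration for full growth arrest is given as TGI.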

Experiments:
Assay in all cases: inhibition of tumour cell growth, NCI panel, 48 h
HOP-62 NSCLC = system: HOP-62 NSCLC
TK-10 renal = system: TK-10 renal
SN12C renal = system: SN12C renal
SR leukemia = system: SR leukemia
PC-3 prostate = system: PC-3 prostate
NCI-H23 lung = system: NCI-H23 lung
A498 renal = system: A498 renal
HL-60(TB) leukemia = system: HL-60(TB) leukemia
SNB-19 CNS = system: SNB-19 CNS
MDA-MB-231 breast = system: MDA-MB-231 breast
NCI-H226 lung = system: NCI-H226 lung
NCI/ADR-RES ovarian = system: NCI/ADR-RES ovarian
OVCAR-5 ovarian = system: OVCAR-5 ovarian
T-47D breast = system: T-47D breast
DU-145 prostate = system: DU-145 prostate
NCI-H460 lung = system: NCI-H460 lung
SNB-75 CNS = system: SNB-75 CNS
CCRF-CEM leukemia = system: CCRF-CEM leukemia
SF-268 CNS = system: SF-268 CNS
RXF 393 renal = system: RXF 393 renal
UO-31 renal = system: UO-31 renal
MCF7 breast = system: MCF7 breast
K-562 leukemia = system: K-562 leukemia
COLO 205 colon = system: COLO 205 colon
MOLT-4 leukemia = system: MOLT-4 leukemia
OVCAR-3 ovarian = system: OVCAR-3 ovarian
UACC-62 melanoma = system: UACC-62 melanoma
M14 melanoma = system: M14 melanoma
MALME-3M melanoma = system: MALME-3M melanoma
EKVX NSCLC = system: EKVX NSCLC
SK-MEL-28 melanoma = system: SK-MEL-28 melanoma
HCT-116 colon = system: HCT-116 colon
HS 578T breast = system: HS 578T breast
HT29 colon = system: HT29 colon
HCC-2998 colon = system: HCC-2998 colon
SF-539 CNS = system: SF-539 CNS
KM12 colon = system: KM12 colon
IGROV1 ovarian = system: IGROV1 ovarian
LOX IMVI melanoma = system: LOX IMVI melanoma
SW-620 colon = system: SW-620 colon
U251 CNS = system: U251 CNS
RPMI-8226 leukemia = system: RPMI-8226 leukemia
786-0 renal = system: 786-0 renal
OVCAR-8 ovarian = system: OVCAR-8 ovarian
NCI-H522 lung = system: NCI-H522 lung
UACC-257 melanoma = system: UACC-257 melanoma
ACHN renal = system: ACHN renal
SK-OV-3 ovarian = system: SK-OV-3 ovarian
HCT-15 colon = system: HCT-15 colon
OVCAR-4 ovarian = system: OVCAR-4 ovarian
BT-549 breast = system: BT-549 breast
SK-MEL-5 melanoma = system: SK-MEL-5 melanoma
SF-295 CNS = system: SF-295 CNS
HOP-92 NSCLC = system: HOP-92 NSCLC
CAKI-1 renal = system: CAKI-1 renal
A549 NSCLC = system: A549 NSCLC
MDA-MB-435 = system: MDA-MB-435
SK-MEL-2 melanoma = system: SK-MEL-2 melanoma

SMILES: CCNCCCn1c2c(c3cc(OC)c(OC)cc3c1=O)C(=O)c1cc(OC)cnc1-2
- GI50 (HOP-62 NSCLC): 213 nM
- TGI (HOP-62 NSCLC): 2640 nM
- GI50 (TK-10 renal): > 50400 nM
- TGI (TK-10 renal): > 66400 nM
- GI50 (SN12C renal): 837 nM
- TGI (SN12C renal): > 51400 nM
- GI50 (SR leukemia): 68.5 nM
- TGI (SR leukemia): 3290 nM
- GI50 (PC-3 prostate): 1840 nM
- TGI (PC-3 prostate): 26800 nM
- GI50 (NCI-H23 lung): 736 nM
- TGI (NCI-H23 lung): 7180 nM
- GI50 (A498 renal): 28000 nM
- TGI (A498 renal): > 58200 nM
- GI50 (HL-60(TB) leukemia): 1040 nM
- TGI (HL-60(TB) leukemia): 11800 nM
- GI50 (SNB-19 CNS): 529 nM
- TGI (SNB-19 CNS): > 51300 nM
- GI50 (MDA-MB-231 breast): 2660 nM
- TGI (MDA-MB-231 breast): 20300 nM
- GI50 (NCI-H226 lung): 1280 nM
- TGI (NCI-H226 lung): > 35800 nM
- GI50 (NCI/ADR-RES ovarian): 1040 nM
- TGI (NCI/ADR-RES ovarian): 27200 nM
- GI50 (OVCAR-5 ovarian): 3890 nM
- TGI (OVCAR-5 ovarian): 35100 nM
- GI50 (T-47D breast): 711 nM
- TGI (T-47D breast): > 100000 nM
- GI50 (DU-145 prostate): 639 nM
- TGI (DU-145 prostate): 15000 nM
- GI50 (NCI-H460 lung): 153 nM
- TGI (NCI-H460 lung): 5110 nM
- GI50 (SNB-75 CNS): 474 nM
- TGI (SNB-75 CNS): 3450 nM
- GI50 (CCRF-CEM leukemia): 122 nM
- TGI (CCRF-CEM leukemia): 23300 nM
- GI50 (SF-268 CNS): 765 nM
- TGI (SF-268 CNS): > 63100 nM
- GI50 (RXF 393 renal): 1030 nM
- TGI (RXF 393 renal): 4770 nM
- GI50 (UO-31 renal): 615 nM
- TGI (UO-31 renal): > 47200 nM
- GI50 (MCF7 breast): 120 nM
- TGI (MCF7 breast): 13000 nM
- GI50 (K-562 leukemia): 256 nM
- TGI (K-562 leukemia): 22900 nM
- GI50 (COLO 205 colon): 1380 nM
- TGI (COLO 205 colon): > 53500 nM
- GI50 (MOLT-4 leukemia): 95.3 nM
- TGI (MOLT-4 leukemia): 8080 nM
- GI50 (OVCAR-3 ovarian): 1400 nM
- TGI (OVCAR-3 ovarian): 18700 nM
- GI50 (UACC-62 melanoma): 388 nM
- TGI (UACC-62 melanoma): 8210 nM
- GI50 (M14 melanoma): 517 nM
- TGI (M14 melanoma): 25800 nM
- GI50 (MALME-3M melanoma): 10900 nM
- TGI (MALME-3M melanoma): 36600 nM
- GI50 (EKVX NSCLC): 15700 nM
- TGI (EKVX NSCLC): > 58600 nM
- GI50 (SK-MEL-28 melanoma): 48500 nM
- TGI (SK-MEL-28 melanoma): > 63100 nM
- GI50 (HCT-116 colon): 376 nM
- TGI (HCT-116 colon): 6590 nM
- GI50 (HS 578T breast): > 43900 nM
- TGI (HS 578T breast): > 70300 nM
- GI50 (HT29 colon): 462 nM
- TGI (HT29 colon): 2770 nM
- GI50 (HCC-2998 colon): 1670 nM
- TGI (HCC-2998 colon): 29500 nM
- GI50 (SF-539 CNS): 432 nM
- TGI (SF-539 CNS): 2140 nM
- GI50 (KM12 colon): 3330 nM
- TGI (KM12 colon): 50000 nM
- GI50 (IGROV1 ovarian): 1020 nM
- TGI (IGROV1 ovarian): > 52800 nM
- GI50 (LOX IMVI melanoma): 313 nM
- TGI (LOX IMVI melanoma): 2320 nM
- GI50 (SW-620 colon): 358 nM
- TGI (SW-620 colon): 19300 nM
- GI50 (U251 CNS): 267 nM
- TGI (U251 CNS): 9160 nM
- GI50 (RPMI-8226 leukemia): 440 nM
- TGI (RPMI-8226 leukemia): 4860 nM
- GI50 (786-0 renal): 718 nM
- TGI (786-0 renal): 6400 nM
- GI50 (OVCAR-8 ovarian): 1200 nM
- TGI (OVCAR-8 ovarian): 20100 nM
- GI50 (NCI-H522 lung): 197 nM
- TGI (NCI-H522 lung): 19600 nM
- GI50 (UACC-257 melanoma): 1980 nM
- TGI (UACC-257 melanoma): > 55000 nM
- GI50 (ACHN renal): 341 nM
- TGI (ACHN renal): 29300 nM
- GI50 (SK-OV-3 ovarian): 471 nM
- TGI (SK-OV-3 ovarian): 2060 nM
- GI50 (HCT-15 colon): 1390 nM
- TGI (HCT-15 colon): 19700 nM
- GI50 (OVCAR-4 ovarian): 2560 nM
- TGI (OVCAR-4 ovarian): 18700 nM
- GI50 (BT-549 breast): 1320 nM
- TGI (BT-549 breast): 25500 nM
- GI50 (SK-MEL-5 melanoma): 794 nM
- TGI (SK-MEL-5 melanoma): 3300 nM
- GI50 (SF-295 CNS): 159 nM
- TGI (SF-295 CNS): 11200 nM
- GI50 (HOP-92 NSCLC): 4030 nM
- TGI (HOP-92 NSCLC): > 60300 nM
- GI50 (CAKI-1 renal): 339 nM
- TGI (CAKI-1 renal): > 50000 nM
- GI50 (A549 NSCLC): 2100 nM
- TGI (A549 NSCLC): 33800 nM
- GI50 (MDA-MB-435): 1990 nM
- TGI (MDA-MB-435): > 55600 nM
- GI50 (SK-MEL-2 melanoma): > 38900 nM
- TGI (SK-MEL-2 melanoma): > 75900 nM
